DBAASP
Values after ≈ are worked out from the molar mass of the structure shown. Values joined by “and” are separate entries in the source; they are usually repeats but may differ in a detail not shown here. Equal entries are not always repeated.

Key:
Assay in all cases: ≥ marks a high value that may be exact or a test limit, other limits are often not marked, values filed in µg/mL are converted to µM
[1] = tested on: Escherichia coli ATCC 25922
Escherichia coli = tested on: Escherichia coli
Staphylococcus aureus = tested on: Staphylococcus aureus
[2] = tested on: Staphylococcus aureus ATCC 25923
[3] = tested on: Pseudomonas aeruginosa ATCC 27853

`CC(C)C[C@H](NC(=O)[C@H](CCC(N)=O)NC(=O)[C@H](CCCN=C(N)N)NC(=O)[C@H](CCCN=C(N)N)NC(=O)[C@@H]1CCCN1C(=O)[C@H](C)N)C(=O)N[C@@H](CCCCN)C(=O)N[C@@H](Cc1c[nH]c2ccccc12)C(=O)O` [APRRQLKW] gave an MIC [1] of 15.2 µM (≈ 16 µg/mL).
In the case of `CSCC[C@@H]1NC(=O)[C@H](CC(C)C)NC(=O)[C@H](CCCN=C(N)N)NC(=O)[C@H](CO)NC(=O)[C@@H]2CSSC[C@@H]3NC(=O)[C@H](CO)NC(=O)CNC(=O)[C@H]([C@@H](C)O)NC(=O)[C@H](CSSC[C@H](N)C(=O)N[C@@H](CCCCN)C(=O)NCC(=O)N[C@@H](CCCCN)C(=O)NCC(=O)N[C@@H](C)C(=O)N[C@@H](CCCCN)C(=O)N2)NC(=O)[C@H](CSSC[C@@H](C(=O)NCC(=O)N[C@@H](CO)C(=O)O)NC(=O)[C@H](CCCCN)NC(=O)CNC(=O)[C@H](CO)NC(=O)[C@H](CCCN=C(N)N)NC3=O)NC(=O)[C@H](CC(=O)O)NC(=O)[C@H](Cc2ccc(O)cc2)NC1=O` [CKGKGAKCSRLMYDCCTGSCRSGKCGS], the MIC (Escherichia coli) is reported as over 500 µM and the MIC (Staphylococcus aureus) is reported as over 500 µM.
Work on `CC(C)[C@H](NC(=O)[C@H](CCCCN)NC(=O)[C@@H](N)Cc1ccccc1)C(=O)N[C@H](C(=O)N[C@@H](Cc1c[nH]c2ccccc12)C(=O)N[C@@H](CCCCN)C(=O)N[C@H](C(=O)N[C@@H](CCCCN)C(=O)N[C@@H](Cc1c[nH]c2ccccc12)C(=O)N[C@@H](Cc1c[nH]c2ccccc12)C(=O)N[C@@H](CCCCN)C(=O)NCC(N)=O)[C@@H](C)O)[C@@H](C)O` [FKVTWKTKWWKG] yielded an MIC [1] of 4.38 µM (≈ 6.99 µg/mL) and an MIC [2] of 7.59 µM (≈ 12.1 µg/mL).
`CC[C@H](C)[C@H](NC(=O)[C@H](CCCCN)NC(=O)[C@H](CC(C)C)NC(=O)[C@H](C)NC(=O)[C@H](C)NC(=O)[C@H](CCCCN)NC(=O)[C@H](CC(C)C)NC(=O)[C@H](C)NC(=O)[C@H](CCCCN)NC(=O)CNC(=O)[C@H](CC(C)C)NC(=O)[C@H](Cc1ccccc1)NC(=O)[C@H](CO)NC(=O)CNC(=O)[C@H](Cc1ccccc1)NC(=O)CN)C(=O)NCC(=O)N[C@@H](C)C(=O)N[C@@H](CC(=O)O)C(=O)N[C@H](C(=O)N[C@@H](CC(C)C)C(=O)NCC(=O)NCC(=O)N[C@@H](C)C(=O)N1CCC[C@H]1C(=O)N[C@@H](CCC(N)=O)C(=O)N[C@@H](CCC(N)=O)C(=O)O)C(C)C` [GFGSFLGKALKAALKIGADVLGGAPQQ] gave an MIC (Escherichia coli) of over 50 µM and an MIC (Staphylococcus aureus) of 25 µM (≈ 65.4 µg/mL).
Compound `CC(C)C[C@H](NC(=O)[C@H](C)NC(=O)[C@H](CCCCN)NC(=O)[C@H](C)NC(=O)[C@H](C)NC(=O)CNC(=O)[C@H](CCCCN)NC(=O)[C@H](CC(C)C)NC(=O)[C@H](CC(C)C)NC(=O)[C@H](CC(=O)O)NC(=O)[C@H](CCCCN)NC(=O)[C@H](Cc1ccccc1)NC(=O)CN)C(=O)N[C@H](C(=O)N[C@@H](CCCCN)C(=O)N[C@H](C(=O)N[C@H](C(=O)N[C@@H](CC(C)C)C(=O)N[C@@H](CCCCN)C(N)=O)C(C)C)[C@@H](C)O)C(C)C` [GFKDLLKGAAKALVKTVLK] has an MIC [1] of 5 µM (≈ 10 µg/mL) and an MIC [2] of 18.8 µM (≈ 37.6 µg/mL).
`CC[C@H](C)[C@H](NC(=O)CN)C(=O)N[C@@H](CCSC)C(=O)N[C@@H](CC(=O)O)C(=O)N[C@@H](CO)C(=O)N[C@H](C(=O)N[C@@H](CCCCN)C(=O)N[C@@H](CC(N)=O)C(=O)N[C@@H](C)C(=O)N[C@@H](C)C(=O)N[C@@H](CCCCN)C(=O)N[C@@H](CC(N)=O)C(=O)N[C@@H](CC(C)C)C(=O)N[C@@H](C)C(=O)NCC(=O)N[C@@H](CCC(N)=O)C(=O)N[C@@H](CC(C)C)C(=O)N[C@@H](CC(C)C)C(=O)N[C@@H](CC(=O)O)C(=O)N[C@H](C(=O)N[C@H](C(=O)N[C@@H](CCCCN)C(=O)N[C@H]1CSSC[C@@H](C(=O)O)NC(=O)[C@H](C)NC(=O)[C@H]([C@@H](C)O)NC(=O)[C@H]([C@@H](C)CC)NC(=O)[C@H](CCCCN)NC1=O)[C@@H](C)CC)[C@@H](C)O)C(C)C` [GIMDSVKNAAKNLAGQLLDTIKCKITAC] showed an MIC [1] of 25 µM (≈ 73 µg/mL).
`CC[C@H](C)[C@H](NC(=O)[C@H](CCCN=C(N)N)NC(=O)[C@H](CCCCN)NC(=O)[C@H](C)NC(=O)[C@H](CC(C)C)NC(=O)CN)C(=O)N[C@@H](CCCCN)C(=O)N[C@H](C(=O)N[C@@H](CC(C)C)C(=O)N[C@@H](CC(C)C)C(N)=O)[C@@H](C)O` [GLAKRIKTLL] showed an MIC [1] of over 34.2 µM and an MIC [2] of over 34.2 µM.
For `CC[C@H](C)[C@H](NC(=O)[C@H](CC(C)C)NC(=O)[C@H](CCCCN)NC(=O)[C@H](CC(C)C)NC(=O)[C@H](CC(C)C)NC(=O)CN)C(=O)N[C@@H](CCCCN)C(=O)N[C@H](C(=O)N[C@@H](CC(C)C)C(=O)N[C@@H](CC(C)C)C(N)=O)[C@@H](C)O` [GLLKLIKTLL], the MIC [1] was 1.8 µM (≈ 2 µg/mL) and the MIC [2] was 1.8 µM (≈ 2 µg/mL).
Work on `CC[C@H](C)[C@H](NC(=O)[C@H](CCCCN)NC(=O)[C@@H](NC(=O)[C@H](CCCN=C(N)N)NC(=O)[C@H](CCCCN)NC(=O)[C@H](CC(C)C)NC(=O)[C@H](CC(C)C)NC(=O)CN)[C@@H](C)CC)C(=O)N[C@@H](CC(C)C)C(=O)N[C@@H](CC(C)C)C(N)=O` [GLLKRIKILL] yielded an MIC [1] of 7.72 µM (≈ 8.99 µg/mL) and an MIC [2] of 12 µM (≈ 14 µg/mL).
Work on `CC[C@H](C)[C@H](NC(=O)[C@H](CCCN=C(N)N)NC(=O)[C@H](CCCCN)NC(=O)[C@H](CC(C)C)NC(=O)[C@H](CC(C)C)NC(=O)CN)C(=O)N[C@@H](CCCCN)C(=O)N[C@@H](CO)C(=O)N[C@@H](CC(C)C)C(=O)N[C@@H](CC(C)C)C(N)=O` [GLLKRIKSLL] yielded an MIC [1] of 100 µM (≈ 114 µg/mL).
For `CC[C@H](C)[C@H](NC(=O)[C@H](CCCN=C(N)N)NC(=O)[C@H](CCCCN)NC(=O)[C@H](CC(C)C)NC(=O)[C@H](CC(C)C)NC(=O)CN)C(=O)N[C@@H](CCCCN)C(=O)N[C@H](C(=O)N[C@@H](CC(C)C)C(=O)N[C@@H](C)C(N)=O)[C@@H](C)O` [GLLKRIKTLA], the MIC [1] was over 43.1 µM and the MIC [2] was over 43.1 µM.
`CC[C@H](C)[C@H](NC(=O)[C@H](CCCN=C(N)N)NC(=O)[C@H](CCCCN)NC(=O)[C@H](CC(C)C)NC(=O)[C@H](CCSC)NC(=O)CN)C(=O)N[C@@H](CCCCN)C(=O)N[C@H](C(=O)N[C@@H](CC(C)C)C(=O)N[C@@H](CCSC)C(N)=O)[C@@H](C)O` [GMLKRIKTLM] gave an MIC [1] of over 200 µM.
With `CC[C@H](C)[C@H](N)C(=O)NCC(=O)N[C@@H](CCCCN)C(=O)N[C@@H](CC(C)C)C(=O)N1CCC[C@H]1C(=O)N[C@@H](CCCCN)C(=O)N[C@@H](Cc1c[nH]c2ccccc12)C(=O)N[C@H](C(=O)N[C@H](C(=O)N[C@@H](CCCCN)C(=O)N[C@H](C(=O)N[C@H](C(=O)N[C@@H](CC(N)=O)C(=O)N[C@@H](CCCCN)C(=O)N[C@@H](Cc1ccccc1)C(=O)N[C@H](C(=O)N[C@@H](CCCCN)C(=O)N[C@@H](CCCCN)C(=O)O)[C@@H](C)O)C(C)C)[C@@H](C)O)[C@@H](C)CC)[C@@H](C)CC` [IGKLPKWIIKTVNKFTKK] the MIC (Escherichia coli) was 2.1 µM (≈ 4.5 µg/mL).
`CC(C)C[C@H](NC(=O)[C@H](C)NC(=O)[C@H](CCCCN)NC(=O)[C@H](CC(C)C)NC(=O)[C@H](C)NC(=O)[C@H](CCCCN)NC(=O)[C@H](CCCCN)NC(=O)[C@H](CC(C)C)NC(=O)[C@H](C)NC(=O)[C@H](CCCCN)NC(=O)[C@H](CC(C)C)NC(=O)[C@H](C)NC(=O)[C@H](CCCCN)NC(=O)[C@H](CCCCN)NC(=O)[C@H](CC(C)C)NC(=O)[C@H](C)NC(=O)[C@H](CCCCN)NC(=O)[C@H](CC(C)C)NC(=O)[C@H](C)NC(=O)[C@@H](N)CCCCN)C(=O)N[C@@H](CCCCN)C(N)=O` [KALKALKKALKALKKALKALK] was tested, and the MIC [3] was 4 µM (≈ 9.1 µg/mL), the MIC [1] was 4 µM (≈ 9.1 µg/mL) and the MIC [2] was 8 µM (≈ 18.2 µg/mL).
For `CC[C@H](C)[C@H](NC(=O)[C@H](CCCCN)NC(=O)[C@H](CCCN=C(N)N)NC(=O)[C@H](CC(C)C)NC(=O)[C@H](CCCN=C(N)N)NC(=O)[C@H](CO)NC(=O)[C@H](Cc1c[nH]c2ccccc12)NC(=O)[C@@H](NC(=O)[C@@H](N)CCCCN)C(C)C)C(=O)N[C@@H](Cc1ccccc1)C(=O)N[C@@H](CO)C(=O)N[C@H](C(=O)N[C@@H](CCCN=C(N)N)C(N)=O)[C@@H](C)O` [KVWSRLRKIFSTR], the MIC [1] was 2.64 µM and 5.27 µM.
Work on `CC(C)C[C@H](NC(=O)[C@H](Cc1ccccc1)NC(=O)[C@@H]1CCCN1C(=O)[C@H](C)NC(=O)[C@H](Cc1c[nH]c2ccccc12)NC(=O)[C@H](C)NC(=O)[C@@H]1CCCN1C(=O)[C@H](Cc1ccccc1)NC(=O)[C@H](CCCN=C(N)N)NC(=O)[C@H](CCCN=C(N)N)NC(=O)[C@@H](N)C(C)C)C(=O)N[C@@H](CCCN=C(N)N)C(=O)N[C@@H](CCCN=C(N)N)C(N)=O` [VRRFPAWAPFLRR] yielded an MIC [1] of 90.5 µM (≈ 151 µg/mL).
Compound `CC(C)C[C@H](NC(=O)[C@H](Cc1ccccc1)NC(=O)[C@@H]1CCCN1C(=O)[C@H](C)NC(=O)[C@H](C)NC(=O)[C@H](Cc1c[nH]c2ccccc12)NC(=O)[C@@H]1CCCN1C(=O)[C@H](Cc1ccccc1)NC(=O)[C@H](CCCN=C(N)N)NC(=O)[C@H](CCCN=C(N)N)NC(=O)[C@@H](N)C(C)C)C(=O)N[C@@H](CCCN=C(N)N)C(=O)N[C@@H](CCCN=C(N)N)C(N)=O` [VRRFPWAAPFLRR] has an MIC [1] of 90.5 µM (≈ 151 µg/mL).
Work on `CC(C)[C@H](NC(=O)[C@H](CC(=O)O)NC(=O)[C@H](CO)NC(=O)[C@H](CCCCN)NC(=O)[C@@H](N)Cc1c[nH]c2ccccc12)C(=O)N[C@@H](CCCN=C(N)N)C(=O)N[C@@H](CCCN=C(N)N)C(=O)N[C@@H](Cc1c[nH]c2ccccc12)C(=O)N[C@@H](CCCN=C(N)N)C(=O)N[C@@H](CO)C(=O)N[C@@H](CCCN=C(N)N)C(=O)N[C@@H](Cc1ccc(O)cc1)C(N)=O` [WKSDVRRWRSRY] yielded an MIC [3] of over 100 µM, an MIC [1] of 64 µM (≈ 108 µg/mL) and an MIC [2] of over 100 µM.
`CC(C)[C@H](NC(=O)[C@H](Cc1ccc(O)cc1)NC(=O)[C@H](CO)NC(=O)[C@H](CCCCN)NC(=O)[C@@H](N)Cc1c[nH]c2ccccc12)C(=O)N[C@@H](CCCN=C(N)N)C(=O)N[C@@H](CCCN=C(N)N)C(=O)N[C@@H](Cc1c[nH]c2ccccc12)C(=O)N[C@@H](CCCN=C(N)N)C(N)=O` [WKSYVRRWR] gave an MIC [3] of over 100 µM, an MIC [1] of 64 µM (≈ 85.5 µg/mL) and an MIC [2] of 64 µM (≈ 85.5 µg/mL).
